Structures are written as SMILES. “And” between values parts separate entries of the source, which are not always exact repeats. Equal values may be shown once.

This assay deals with LG0703-F498-PDC complex spheroid growth. The experiment in a line: Anticancer human tumor LG0703-F498-PDC patient-derived lung adenocarcinoma cell line growth inhibition [AhR]. The conditions noted are these: for viability, T/C: stronger effect = lower value. The gist of the method:
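Agents were dosed in half-log steps down from roughly clinical Cmax, or from 10 microM where Cmax was unknown, alone and with AhR antagonists. Read-out: percent test/control growth of tumor spheroids containing HUVEC and MSC stromal cells.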

Where [1] appears, read: curve of first compound, second compound 0.1 µM.
Where [2] appears, read: curve of first compound, second compound 0.316 µM.
[3] abbreviates: curve of first compound, second compound 1 µM.
Where [4] appears, read: curve of first compound, second compound 3.16 µM.
Setting [5] is: curve of first compound, second compound 10 µM.
[6] abbreviates: second compound 0.1 µM, first compound 0.00949 µM.
Where [7] appears, read: second compound 0.1 µM, first compound 0.03 µM.
The mark [8] stands for this setting: second compound 0.1 µM, first compound 0.0949 µM.
The mark [9] stands for this setting: second compound 0.1 µM, first compound 0.3 µM.
Where [10] appears, read: second compound 0.316 µM, first compound 0.00949 µM.
The mark [11] stands for this setting: second compound 0.316 µM, first compound 0.03 µM.
Where [12] appears, read: second compound 0.316 µM, first compound 0.0949 µM.
The mark [13] stands for this setting: second compound 0.316 µM, first compound 0.3 µM.
The mark [14] stands for this setting: second compound 1 µM, first compound 0.00949 µM.
The mark [15] stands for this setting: second compound 1 µM, first compound 0.03 µM.
The mark [16] stands for this setting: second compound 1 µM, first compound 0.0949 µM.
Where [17] appears, read: second compound 1 µM, first compound 0.3 µM.
Setting [18] is: second compound 3.16 µM, first compound 0.00949 µM.
Setting [19] is: second compound 3.16 µM, first compound 0.03 µM.
The mark [20] stands for this setting: second compound 3.16 µM, first compound 0.0949 µM.
Setting [21] is: second compound 3.16 µM, first compound 0.3 µM.
Setting [22] is: second compound 10 µM, first compound 0.00949 µM.
[23] abbreviates: second compound 10 µM, first compound 0.03 µM.
Where [24] appears, read: second compound 10 µM, first compound 0.0949 µM.
Setting [25] is: second compound 10 µM, first compound 0.3 µM.
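Further: luminescence taken as a proxy for viable cell amount.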
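Wherever viability, T/C is given: percent of DMSO vehicle control where 100% means growth equal to vehicle.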

`O=C(C=Cn1cnc(-c2cc(C(F)(F)F)cc(C(F)(F)F)c2)n1)NNc1cnccn1` + CC(CO)NC(=O)c1cc(-c2ccc(Cl)cc2)nn(-c2cnn(C)c2)c1=O: the IC50 was 60 nM under setting [1]; 45.6 nM under setting [2]; 57.3 nM under setting [3]; 26.9 nM under setting [4]; 39.7 nM under setting [5]. In addition, the viability, T/C under setting [6] was 68.1%; the viability, T/C under setting [7] was 64.5%; the viability, T/C under setting [8] was 40.4%; the viability, T/C under setting [9] is 40.6%; the viability, T/C (second compound 0.1 µM, first compound 0.949 µM) is 37.8%; the viability, T/C (second compound 0.1 µM, first compound 3 µM) is 36.9%. Moreover, the viability, T/C reads like this: under setting [10], 67.3%; under setting [11], 54.5%; under setting [12], 42.1%; under setting [13], 36.2%; (second compound 0.316 µM, first compound 0.949 µM) 35.6%; (second compound 0.316 µM, first compound 3 µM) 32.4%. Besides, the viability, T/C is 64.8% under setting [14]; 54.1% under setting [15]; 48% under setting [16]; 36.7% under setting [17]; 34.1% (second compound 1 µM, first compound 0.949 µM); 34.1% (second compound 1 µM, first compound 3 µM). Further, the viability, T/C is, setting by setting: under setting [18], 59.5%; under setting [19], 50.1%; under setting [20], 36.1%; under setting [21], 38.2%; (second compound 3.16 µM, first compound 0.949 µM) 28.7%; (second compound 3.16 µM, first compound 3 µM) 31.4%. In addition, the viability, T/C reads like this: under setting [22], 61%; under setting [23], 54.7%; under setting [24], 35.7%; under setting [25], 33.3%; (second compound 10 µM, first compound 0.949 µM) 28.6%; (second compound 10 µM, first compound 3 µM) 28.9%.

`COc1cc(Nc2ncc3c(n2)-c2ccc(Cl)cc2C(c2c(F)cccc2OC)=NC3)ccc1C(=O)O`: the viability, T/C (compound 0.0316 µM) is 87.2% and 100% and 93.8%; the viability, T/C (compound 0.1 µM) is 81% and 83.4% and 82.2%; the viability, T/C (compound 0.316 µM) was 67.8% and 64.2% and 72.7%; the viability, T/C (compound 1 µM) was 76.2% and 77.1% and 73.1%; the viability, T/C (compound 3.16 µM) was 67% and 61% and 63.3%; the viability, T/C (compound 10 µM) is 37.5% and 36.6% and 41.4%. Besides, the IC50 (curve of compound) was 5980 nM and 5060 nM and 6780 nM.

Take `COc1cc(Nc2ncc3c(n2)-c2ccc(Cl)cc2C(c2c(F)cccc2OC)=NC3)ccc1C(=O)O` + Cc1cncc(-c2nc(NCCc3c[nH]c4ccccc34)c3ncn(C(C)C)c3n2)c1: the IC50 was 3970 nM under setting [1]; 5260 nM under setting [2]; 2830 nM under setting [3]; below 31.6 nM under setting [4]; below 31.6 nM under setting [5]. In addition, the viability, T/C is 88.6% (second compound 0.1 µM, first compound 0.0316 µM); 77.1% (second compound 0.1 µM, first compound 0.1 µM); 65.4% (second compound 0.1 µM, first compound 0.316 µM); 65.8% (second compound 0.1 µM, first compound 1 µM); 60.2% (second compound 0.1 µM, first compound 3.16 µM); 35% (second compound 0.1 µM, first compound 10 µM). The viability, T/C (second compound 0.316 µM, first compound 0.0316 µM) is 81.8%; the viability, T/C (second compound 0.316 µM, first compound 0.1 µM) is 80.5%; the viability, T/C (second compound 0.316 µM, first compound 0.316 µM) was 58.9%; the viability, T/C (second compound 0.316 µM, first compound 1 µM) is 78.2%; the viability, T/C (second compound 0.316 µM, first compound 3.16 µM) was 58.1%; the viability, T/C (second compound 0.316 µM, first compound 10 µM) is 38.2%. Besides, the viability, T/C was 94.4% (second compound 1 µM, first compound 0.0316 µM); 70.7% (second compound 1 µM, first compound 0.1 µM); 63% (second compound 1 µM, first compound 0.316 µM); 63.7% (second compound 1 µM, first compound 1 µM); 55.9% (second compound 1 µM, first compound 3.16 µM); 35.1% (second compound 1 µM, first compound 10 µM). Also, the viability, T/C is, setting by setting: (second compound 3.16 µM, first compound 0.0316 µM) 45.7%; (second compound 3.16 µM, first compound 0.1 µM) 33.3%; (second compound 3.16 µM, first compound 0.316 µM) 38.1%; (second compound 3.16 µM, first compound 1 µM) 34.6%; (second compound 3.16 µM, first compound 3.16 µM) 18.9%; (second compound 3.16 µM, first compound 10 µM) 10.2%. The viability, T/C (second compound 10 µM, first compound 0.0316 µM) was 1.81%; the viability, T/C (second compound 10 µM, first compound 0.1 µM) is 1.7%; the viability, T/C (second compound 10 µM, first compound 0.316 µM) was 2.07%; the viability, T/C (second compound 10 µM, first compound 1 µM) was 1.87%; the viability, T/C (second compound 10 µM, first compound 3.16 µM) was 1.84%; the viability, T/C (second compound 10 µM, first compound 10 µM) was 3.35%.

As to `CCc1c2c(nc3ccc(O)cc13)-c1cc3c(c(=O)n1C2)COC(=O)[C@]3(O)CC` + Cc1cncc(-c2nc(NCCc3c[nH]c4ccccc34)c3ncn(C(C)C)c3n2)c1, the IC50 was 15.3 nM under setting [1]; 11.1 nM under setting [2]; 11.9 nM under setting [3]; below 0.949 nM under setting [4]; below 0.949 nM under setting [5]. Moreover, the viability, T/C reads like this: (second compound 0.1 µM, first compound 0.000949 µM) 102%; (second compound 0.1 µM, first compound 0.003 µM) 82.4%; under setting [6], 55.5%; under setting [7], 39.3%; under setting [8], 29.1%; under setting [9], 19.2%. Moreover, the viability, T/C is, setting by setting: (second compound 0.316 µM, first compound 0.000949 µM) 92.1%; (second compound 0.316 µM, first compound 0.003 µM) 72.4%; under setting [10], 51.2%; under setting [11], 37.1%; under setting [12], 25.2%; under setting [13], 18.3%. Moreover, the viability, T/C runs as follows: (second compound 1 µM, first compound 0.000949 µM) 80.5%; (second compound 1 µM, first compound 0.003 µM) 76.5%; under setting [14], 49.7%; under setting [15], 35.7%; under setting [16], 22.1%; under setting [17], 13.6%. Also, the viability, T/C is, setting by setting: (second compound 3.16 µM, first compound 0.000949 µM) 44.5%; (second compound 3.16 µM, first compound 0.003 µM) 37.7%; under setting [18], 33%; under setting [19], 29.1%; under setting [20], 16.3%; under setting [21], 11.9%. Also, the viability, T/C reads like this: (second compound 10 µM, first compound 0.000949 µM) 1.16%; (second compound 10 µM, first compound 0.003 µM) 1.16%; under setting [22], 2.25%; under setting [23], 1.82%; under setting [24], 1.25%; under setting [25], 1.61%.

For the compound `Nc1ccccc1NC(=O)c1ccc(CNC(=O)OCc2cccnc2)cc1`, the viability, T/C is 90.9% and 98.6% and 92.2% (compound 0.0316 µM); 105% (2×) and 83.9% (compound 0.1 µM); 94.5% and 81.1% and 70.5% (compound 0.316 µM); 55.2% and 47.8% and 24.5% (compound 1 µM); 10.7% and 14.8% and 2.77% (compound 3.16 µM); 0.41% and 1.49% and 0.42% (compound 10 µM). The IC50 (curve of compound) was 1160 nM and 920 nM and 523 nM.

As a reminder, the IC50 is the concentration that inhibits the measured activity by half. As usually defined, the viability, T/C is the result in the treated group divided by that in the control group, in per cent.

Values taken from PubChem BioAssay AID1919013 (Molecular Pharmacology Branch, DTP, NCI, 2023).
